Among the data in paper PMC6009887, “New quinoxalinone inhibitors targeting secreted phospholipase A2 and α-glucosidase” (Journal of Enzyme Inhibition and Medicinal Chemistry, 2017) are IC50 and melting point values, retold here.

One series has as its target pG-IB sPLA2 (Sus scrofa, UniProt P00592). As to the kind of experiment: Inhibition of sPLA2 activity, colorimetric lecithin/red phenol assay, group IB. The format is biochemical, porcine.
A further series has as its target T1, hG-IIA sPLA2 (Homo sapiens, UniProt P14555).
T1 sequence (P14555 21-144): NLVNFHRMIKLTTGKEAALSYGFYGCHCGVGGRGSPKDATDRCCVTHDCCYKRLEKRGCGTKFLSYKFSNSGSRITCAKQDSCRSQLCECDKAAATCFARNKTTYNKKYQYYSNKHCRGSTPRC
As to the kind of experiment: Inhibition of sPLA2 activity, colorimetric lecithin/red phenol assay, group IIA. Format: biochemical.

Another series has as its target T2, hG-V sPLA2 (Homo sapiens, UniProt P39877).
T2 sequence (P39877 21-138): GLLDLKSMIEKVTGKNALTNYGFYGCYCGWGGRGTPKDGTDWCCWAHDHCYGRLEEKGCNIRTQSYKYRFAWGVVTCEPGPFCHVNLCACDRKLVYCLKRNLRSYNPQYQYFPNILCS
The experiment in a line: Inhibition of sPLA2 activity, colorimetric lecithin/red phenol assay, group V. Format: biochemical. On the procedure: (§1) The test of inhibitory activity of sPLA2 was performed as described by Lobo de Araujo and Radvanyi[41]. Briefly, the substrate consisted of 3.5 mM lecithin in a mixture of 3 mM NaTDC “Sodium taurodeoxycholate”, 100 mM NaCl, 10 mM CaCl2, and 0.055 mM red phenol as colorimetric indicator in 100 ml H2O. The pH of the reaction mixture was adjusted to 7.6. The human group IB (pG-IB), IIA (hG-IIA), V (hG-V), X (hG-X), and XII (hG-XII) sPLA2 were solubilised in 10% acetonitrile at a concentration of 0.02 μg/μL. A volume of 10 μL of these PLA2 solutions was incubated with 10 μL of each compound for 20 min at room temperature. Then, 1 ml of the PLA2 substrate was added, and the kinetic of hydrolysis was followed during 5 min by reading the optical density at 558 nm. The inhibition percentage was calculated by comparison with a control experiment (absence of compound).
(§2) In order to evaluate the potential anti-inflammatory activity of the 12 studied compounds, we tested their inhibitory effects using several human sPLA2 isozymes, […], hG-V, hG-X, and hG-XII, involved in the inflammatory process and porcine pG-IB sPLA2 which hydrolyses dietary phospholipids.

The target of a further series is T3, hG-X sPLA2 (Homo sapiens, UniProt O15496).
T3 sequence (O15496 43-165): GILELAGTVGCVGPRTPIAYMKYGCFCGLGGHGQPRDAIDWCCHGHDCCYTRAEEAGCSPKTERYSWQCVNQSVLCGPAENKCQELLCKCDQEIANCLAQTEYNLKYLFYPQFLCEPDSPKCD
The experiment in a line: Inhibition of sPLA2 activity, colorimetric lecithin/red phenol assay, group X. The format is biochemical. On the procedure:
as §1, §2

The target of a further series is T4, hG-XIIA sPLA2 (Homo sapiens, UniProt Q9BZM1).
T4 sequence (Q9BZM1 23-189): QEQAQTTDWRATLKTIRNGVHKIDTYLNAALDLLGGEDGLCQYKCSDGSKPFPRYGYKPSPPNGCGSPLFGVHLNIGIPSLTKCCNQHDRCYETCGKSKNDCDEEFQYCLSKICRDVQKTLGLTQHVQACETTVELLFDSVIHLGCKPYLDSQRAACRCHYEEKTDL
The experiment in a line: Inhibition of sPLA2 activity, colorimetric lecithin/red phenol assay, group XII. The format is biochemical.

[1] abbreviates: ± standard deviation, duplicate, read-out: IC50 (µM) Against Phospholipase pG-IB.
Setting [2] is: ± standard deviation, duplicate, read-out: IC50 (µM) Against Phospholipase hG-IIA.
Where [3] appears, read: ± standard deviation, duplicate, read-out: IC50 (µM) Against Phospholipase hG-V.
[4] abbreviates: ± standard deviation, duplicate, read-out: IC50 (µM) Against Phospholipase hG-X.
Setting [5] is: ± standard deviation, duplicate, read-out: IC50 (µM) Against Phospholipase hG-XIIA.

SMILES strings stand for the structures. Read-outs that look alike come from different tables or passages of the source.

Chain of pG-IB sPLA2 (P00592 23-146): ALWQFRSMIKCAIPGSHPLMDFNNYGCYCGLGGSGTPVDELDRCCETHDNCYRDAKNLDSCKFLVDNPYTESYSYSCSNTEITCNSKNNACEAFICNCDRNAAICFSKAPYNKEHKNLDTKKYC
Description for hG-IIA sPLA2: (§3) Briefly, the substrate consisted of 3.5 mM lecithin in a mixture of 3 mM NaTDC “Sodium taurodeoxycholate”, 100 mM NaCl, 10 mM CaCl2, and 0.055 mM red phenol as colorimetric indicator in 100 ml H2O. The pH of the reaction mixture was adjusted to 7.6. The human group IB (pG-IB), IIA (hG-IIA), V (hG-V), X (hG-X), and XII (hG-XII) sPLA2 were solubilised in 10% acetonitrile at a concentration of 0.02 μg/μL. A volume of 10 μL of these PLA2 solutions was incubated with 10 μL of each compound for 20 min at room temperature. […] The inhibition percentage was calculated by comparison with a control experiment (absence of compound).
Description for hG-XIIA sPLA2: as §3
Description for pG-IB sPLA2: as §3

As usually defined, the IC50 is the point on the concentration scale where inhibition reaches its midpoint. Usually melting point stands for the temperature, or range, at which the solid turns liquid. Molecule `COc1cc(/C=N/Nc2nc3ccccc3[nH]c2=O)cc(OC)c1OC` [Compound 3a, (E)-3-(2-(3,4,5-trimethoxybenzylidene)hydrazinyl)quinoxalin-2(1H)-one] yielded a melting point of 258 to 260 °C. In addition, on pG-IB sPLA2 (setting [1]), the IC50 turned out to be 9.31 ± 0.36 µM. In addition, the half-inhibitory concentration (IC50) on hG-IIA sPLA2 (setting [2]) was found to be 2.48 ± 0.28 µM. In addition, the IC50 at hG-V sPLA2 (setting [3]) was 1.46 ± 0.47 µM. At hG-X sPLA2 (setting [4]), the IC50 was found to be 1.26 ± 0.05 µM. Further, the IC50 at hG-XIIA sPLA2 (setting [5]) was 3.04 ± 0.67 µM.
The molecule `O=c1[nH]c2ccccc2nc1N/N=C/c1ccc([N+](=O)[O-])cc1[N+](=O)[O-]` [Compound 3b, (E)-3-(2-(2,4-dinitrobenzylidene)hydrazinyl)quinoxalin-2(1H)-one] showed a melting point of 283 to 285 °C. This molecule displayed an IC50 on pG-IB sPLA2 of 10.7 ± 0.67 µM. On hG-IIA sPLA2, this molecule showed an IC50 of 5.36 ± 0.73 µM. On hG-V sPLA2, it took 1.12 ± 0.31 µM to reach half-maximal inhibition (IC50). At hG-X sPLA2, the IC50 was 2.54 ± 0.42 µM. At hG-XIIA sPLA2, inhibition was half-maximal at 2.28 ± 0.08 µM (IC50).
`O=c1[nH]c2ccccc2nc1N/N=C/c1ccc(O)cc1O` [Compound 3c, (E)-3-(2-(2,4-dihydroxybenzylidene)hydrazinyl)quinoxalin-2(1H)-one] gave a melting point of 292 to 294 °C. On pG-IB sPLA2 (setting [1]), the IC50 was determined as 13.3 ± 0.5 µM. Besides, on hG-IIA sPLA2 (setting [2]), the 50% inhibitory concentration (IC50) came out at 3.71 ± 0.27 µM. At hG-V sPLA2 (setting [3]), the IC50 stood at 9.45 ± 0.13 µM. Moreover, the IC50 on hG-X sPLA2 (setting [4]) is 12.5 ± 0.87 µM. In addition, the IC50 at hG-XIIA sPLA2 (setting [5]) was 6.75 ± 0.17 µM.
`O=c1[nH]c2ccccc2nc1N/N=C/c1ccc(Cl)c(Cl)c1` [Compound 3d, (E)-3-(2-(3,4-dichlorobenzylidene)hydrazinyl)quinoxalin-2(1H)-one] had a melting point of 244 to 246 °C. For the same molecule, the half-maximal inhibitory concentration (IC50) at pG-IB sPLA2 (setting [1]) was 13.5 ± 1.02 µM. The IC50 on hG-IIA sPLA2 (setting [2]) stood at 4.5 ± 0.33 µM. In addition, the IC50 at hG-V sPLA2 (setting [3]) was 5.7 ± 0.27 µM. The IC50 on hG-X sPLA2 (setting [4]) turned out to be 3 ± 0.63 µM. The IC50 on hG-XIIA sPLA2 (setting [5]) turned out to be 10.5 ± 1.74 µM.
As for `O=c1[nH]c2ccccc2nc1N/N=C/c1cccs1` [Compound 3e, (E)-3-(2-(thiophen-2-ylmethylene)hydrazinyl)quinoxalin-2(1H)-one], the IC50 on pG-IB sPLA2 (setting [1]) stood at 10.7 ± 0.92 µM; on hG-IIA sPLA2 (setting [2]), 2.81 ± 0.33 µM; at hG-V sPLA2 (setting [3]) it was 6.28 ± 0.4 µM; at hG-X sPLA2 (setting [4]), 4.43 ± 1.03 µM; at hG-XIIA sPLA2 (setting [5]), 3.81 ± 0.99 µM.
The corresponding values for `COc1cccc(/C=N/Nc2nc3ccccc3[nH]c2=O)c1` [Compound 3f, (E)-3-(2-(3-methoxybenzylidene)hydrazinyl)quinoxalin-2(1H)-one] are 12.4 ± 0.03 µM, 1.9 ± 0.3 µM, 1.22 ± 0.3 µM, 0.33 ± 0.06 µM and 0.84 ± 0.07 µM.
In turn, `COc1cc(-c2nnc3c(=O)[nH]c4ccccc4n23)cc(OC)c1OC` [Compound 4a, 1-(3,4,5-Trimethoxyphenyl)-[1,2,4]triazolo[4,3-a]quinoxalin-4(5H)-one] came in with a melting point of 227 to 229 °C. On pG-IB sPLA2 (setting [1]), the IC50 worked out at 14.2 ± 1.22 µM. Further, the IC50 at hG-IIA sPLA2 (setting [2]) is 13.05 ± 0.05 µM. For the same molecule, the IC50 at hG-V sPLA2 (setting [3]) was 11.3 ± 0.08 µM. Moreover, the IC50 at hG-X sPLA2 (setting [4]) worked out at 12.2 ± 0.47 µM. The IC50 at hG-XIIA sPLA2 (setting [5]) was found to be 13.2 ± 0.21 µM.
Consider `O=c1[nH]c2ccccc2n2c(-c3ccc([N+](=O)[O-])cc3[N+](=O)[O-])nnc12` [Compound 4b, 1-(2,4-Dinitrophenyl)-[1,2,4]triazolo[4,3-a]quinoxalin-4(5H)-one], for which the melting point is greater than 300 °C. Further, the IC50 on pG-IB sPLA2 was 13.6 ± 0.7 µM. The IC50 against hG-IIA sPLA2 amounted to 0.76 ± 0.01 µM. In addition, the IC50 against hG-V sPLA2 stood at 1.53 ± 0.14 µM. Also, the IC50 against hG-X sPLA2 was found to be 1.05 ± 0.08 µM. The IC50 on hG-XIIA sPLA2 was found to be 2.58 ± 0.43 µM.
The molecule `O=c1[nH]c2ccccc2n2c(-c3ccc(O)cc3O)nnc12` [Compound 4c, 1-(2,4-Dihydroxyphenyl)-[1,2,4]triazolo[4,3-a]quinoxalin-4(5H)-one] yielded a melting point greater than 300 °C. The IC50 at pG-IB sPLA2 (setting [1]) is 14.8 ± 0.44 µM. On hG-IIA sPLA2 (setting [2]), the IC50 worked out at 1.32 ± 0.16 µM. Moreover, on hG-V sPLA2 (setting [3]), the IC50 is 1.05 ± 0.13 µM. For the same molecule, at hG-X sPLA2 (setting [4]), the IC50 was 0.61 ± 0.03 µM. Moreover, the IC50 at hG-XIIA sPLA2 (setting [5]) stood at 0.91 ± 0.05 µM.
In the case of `O=c1[nH]c2ccccc2n2c(-c3ccc(Cl)c(Cl)c3)nnc12` [Compound 4d, 1-(3,4-Dichlorophenyl)-[1,2,4]triazolo[4,3-a]quinoxalin-4(5H)-one], the IC50 came out at 14.5 ± 0.87 µM at pG-IB sPLA2 (setting [1]); 1.81 ± 0.04 µM on hG-IIA sPLA2 (setting [2]); 3.04 ± 0.57 µM on hG-V sPLA2 (setting [3]); 2.71 ± 0.07 µM on hG-X sPLA2 (setting [4]); 1.41 ± 0.07 µM at hG-XIIA sPLA2 (setting [5]).
The corresponding values for `O=c1[nH]c2ccccc2n2c(-c3cccs3)nnc12` [Compound 4e, 1-(Thiophen-2-yl)-[1,2,4]triazolo[4,3-a]quinoxalin-4(5H)-one] are 16.8 ± 0.93 µM, 16.8 ± 0.41 µM, 18.6 ± 0.56 µM, 17.9 ± 0.94 µM and 18.6 ± 1.33 µM.
In turn, `COc1cccc(-c2nnc3c(=O)[nH]c4ccccc4n23)c1` [Compound 4f, 1-(3-Methoxyphenyl)-[1,2,4]triazolo[4,3-a]quinoxalin-4(5H)-one] gave a melting point of 286 to 288 °C. Moreover, at pG-IB sPLA2 (setting [1]), the IC50 was 16 ± 1.71 µM. The 50% inhibitory concentration (IC50) at hG-IIA sPLA2 (setting [2]) amounted to 17.1 ± 0.41 µM. In addition, the IC50 at hG-V sPLA2 (setting [3]) stood at 15.8 ± 0.85 µM. Besides, the IC50 on hG-X sPLA2 (setting [4]) is 14.4 ± 0.52 µM. For the same molecule, the IC50 on hG-XIIA sPLA2 (setting [5]) worked out at 15.8 ± 1.29 µM.
With `CC1(C)CC[C@]2(C(=O)O)CC[C@]3(C)C(=CC[C@@H]4[C@@]5(C)CC[C@H](O)C(C)(C)[C@@H]5CC[C@]43C)[C@@H]2C1` [Oleanolic acid, reference compound], the IC50 at hG-V sPLA2 (setting [3]) stood at 16.4 ± 1.53 µM.
